Results published in ChEMBL document CHEMBL3507680, “University of Dundee, Gates Library screen for HepG2 cell viability”.

Test: Human HepG2 cell viability assay in 384 well format
Format: toxicity, cell-based
Design: dose 125 nL, time 70.5 hour; cytotoxicity at 70.5 h: concentration not given beside the values
Details: HepG2 cells, read-out: Inhibition

| Structure (SMILES) | cytotoxicity at 70.5 h |
| --- | --- |
| O=C(NCCn1cc(Cl)cn1)C1CCN(C(=O)C2CC2)CC1 | 2.7% |
| Cn1ccc2ccc(C(=O)N3CCC[C@H]3C(=O)N3CCOCC3)cc21 | -11.1% |
| COc1ccccc1N1CCN(Cc2ncc(C)c(OC)c2C)CC1=O | -6.77% |
| COc1ccc2c(c1)CC(C(=O)N(C)Cc1noc3c1CCCC3)CO2 (centres undefined) | -4.86% |
| Cc1cnc(C(=O)N2CCCC(c3nccn3Cc3cscn3)C2)cn1 (centres undefined) | -3.23% |
| CN(Cc1n[nH]c2c1CCC2)C(=O)c1cc(-c2cccn2C)n[nH]1 | 25.6% |
| CN(CC1(CO)CCCC1)c1nc2c(c(=O)[nH]1)Cc1ccccc1OC2 | -10% |
| Cc1noc(C)c1CN1CC2(CCN(Cc3c[nH]cn3)CC2)CC1=O | -2.12% |
| CC(C)[C@@H]1CN(CC(=O)NCc2ccco2)C[C@H]1NS(=O)(=O)N(C)C | -3.9% |
| O=S(=O)(c1ccc2c(c1)OCCO2)N1CCc2ccccc2C1 | -7.73% |
| CC(C)C1CN(C(=O)c2cc(=O)[nH]c(=O)[nH]2)CCCN1CC1CC1 (centres undefined) | -0.864% |
| Cc1ccccc1CSc1nc(N)cc(N2CCCC(C(N)=O)C2)n1 (centres undefined) | -2.56% |
| CCc1ocnc1C(=O)N1CCC(C2CCN(c3ncccn3)CC2)C1 (centres undefined) | 1.07% |
| CC(=O)N[C@@H]1CN(C2CCN(c3cccc(Cl)c3)CC2)C[C@H]1C(C)C | -7.17% |
| CC(C)C(O)C(=O)N1CCC2(CC1)c1nc[nH]c1CCN2S(C)(=O)=O (centres undefined) | -6.39% |
| Cc1ccccc1CN(CCN(C)C)Cc1ccc(S(C)(=O)=O)cc1 | 4.23% |
| NC(=O)c1cc2c(nc1Oc1cccc(CN3CCCC3)c1F)CCC2 | -13.8% |
| CS(=O)(=O)NCCNc1ncnc2cccc(F)c12 | -6.37% |
| Cc1ccccc1CCC1CCCN(Cc2c(C)[nH]c(=O)[nH]c2=O)C1 (centres undefined) | -8.6% |
| COCc1noc(CNc2nc(C3CCCC3)nc3c2CCNCC3)n1 | -10.6% |
| Cc1cc(N(C)CCn2ccnc2C)n2nccc2n1 | -11.6% |
| CCCSCC(=O)N1C[C@H]2CC[C@@H]1CN(Cc1cccnc1)C2 | 6.46% |
| Nc1cc(-c2cccc3ccnn23)ccn1 | -2.42% |

| Structure (SMILES) | cytotoxicity at 70.5 h |
| --- | --- |
| COc1cc2c(cc1-c1nc3c(cnn3C(C)C(C)C)[nH]1)OCO2 (centres undefined) | -0.404% |
| CC(=O)NCc1nnc2n1CCN(c1ncnc3c1CCC3)CC2 | 25.3% |
| O=C(NCC(F)F)c1ccc(S(=O)(=O)NCCc2ccncc2)cc1 | -11.1% |
| Cc1ccc(OC2(C(=O)NC(C)Cc3ccsc3)CCNCC2)cc1 (centres undefined) | 7.16% |
| Cc1cc(C(F)(F)F)nc(CNC(=O)CCn2cccn2)n1 | -6.34% |
| COc1ccc(F)c(F)c1CN1CCN(CC(C)C)C(=O)C1C (centres undefined) | 25% |
| Cc1nn(C)c(C)c1-c1nc2cc(S(=O)(=O)N3CCCC3)ccc2n1C | -0.406% |
| Nc1cc(N2CCCC(Cc3ccc(F)cc3F)(C(=O)O)C2)ncn1 (centres undefined) | -5.98% |
| Cc1cccc(N2CCN(C(=O)C3CC4(CCNCC4)CN3)CC2)n1 (centres undefined) | 5.27% |
| O=C(CCc1cc(O)no1)N1CCC(Cc2ccc(F)cc2)CC1 | -12% |
| CCN1CCN(C[C@@H]2CN(c3ncc(Cl)cc3Cl)C[C@@H]2CO)CC1 | -6.63% |
| C/C=C(\C)CN1CCCn2nc(CNC(=O)C3CCC3)cc2C1 | -11.6% |
| O=c1[nH]cccc1-c1nccc(C2(c3ccccc3Cl)CCNCC2)n1 | 29.1% |
| COc1ccc(NC(=O)CCN2CC=C(c3cnn(C)c3)CC2)cc1Cl | 5.66% |
| CCN(Cc1cc(Cl)ccc1OC)Cc1ncnn1CC | 1.58% |
| O=C1Cc2cc(NC(=O)N3CCCN(Cc4cccs4)CC3)ccc2N1 | -4.49% |
| CCN(Cc1cc(-c2ccccn2)no1)C1CCS(=O)(=O)C1 (centres undefined) | -9.24% |
| CCNC(=O)C1CCN(c2nc(-c3ccco3)nc3c2CCNCC3)C1 (centres undefined) | -7.78% |
| Clc1cccc2c3c([nH]c12)CCN(Cc1cc2n(n1)CCCNC2)C3 | 35.7% |
| CCCN1CCN(C(=O)c2cncnc2C)[C@H]2CS(=O)(=O)C[C@H]21 | 3.92% |
| CCOc1ccc(C(=O)CCC(=O)N(C)Cc2cnccn2)cc1C | 10.8% |
| Cc1cc(C)cc(N2CCN(Cc3cccc(CCN)c3)CC2=O)c1 | -2.46% |
| COc1ncc(-c2cc(NC3CCCC3)nc3[nH]ccc23)c(OC)n1 | -12% |

| Structure (SMILES) | cytotoxicity at 70.5 h |
| --- | --- |
| CC1=NOC(C(=O)N2CCC(O)(c3ccc4nc(C)ccc4c3)CC2)C1 (centres undefined) | -6.17% |
| C=C(C)COc1cccc(CNCCc2nc(N)cc(O)n2)c1 | -9.19% |
| O=C(NC1CCOCC1)c1cccc(C2CCCNC2)c1 (centres undefined) | -10.4% |
| c1nc2c(c(NCCCn3cncn3)n1)CCN(CC1CCOC1)CC2 (centres undefined) | -2.03% |
| CCC(O)Cn1cc(C2=CCN(Cc3cc(O)nc(C)n3)CC2)cn1 (centres undefined) | 10.8% |
| CCc1cc(N2CCC(NCCc3nc(C)c(C)s3)CC2)nc(C)n1 | -12.2% |
| CC(C)[C@H]1CN(Cc2ccccc2C#N)C[C@@H]1NC(=O)C1CCOCC1 | -13.1% |
| CC(Oc1ccc2c(c1)OCO2)C(=O)N1CCC(N2CCCC2)CC1 (centres undefined) | -4.56% |
| CCC(NC(=O)c1cc(CC(C)C)nn1C)c1ccnn1C (centres undefined) | -10.3% |
| OC1(CN2CCN(c3cccc(C(F)(F)F)c3)CC2)CNCCOC1 (centres undefined) | -12% |
| Cc1cnc(NCc2ccncc2)nc1-c1cnn(C)c1 | 12.6% |
| CCN1CCN(C(=O)CCC2CCN(C(=O)CCSC)CC2)CC1 | 22.6% |
| CCc1cc(N2CCC(NC3CN4CCC3CC4)CC2)nc(N(C)C)n1 (centres undefined) | 29.4% |
| CC(C)C(C)n1nccc1NC(=O)Cn1cnc2ccccc21 (centres undefined) | -12.4% |
| CN1CCCC1c1ccc(C(=O)Nc2c3c(nn2C)CCC3)s1 (centres undefined) | -13% |
| CN(CCO)Cc1nnc(C2CCN(C(=O)c3cc[nH]c3)CC2)n1C | -1.84% |
| CSCCNc1ccc(C(=O)N(C)Cc2ccc3ccccc3n2)cn1 | -12.8% |
| Cc1cccc(CN2CCCC(O)(CNCc3ncccc3C)C2=O)c1 (centres undefined) | -7.55% |
| Cc1cc2nc(C(C)C)cc(NCc3ccncc3)n2n1 | -7.5% |
| Cc1ccc(-c2nnc(CN3CCCCC3Cn3cncn3)o2)cc1 (centres undefined) | -12.6% |
| Cc1ccc(C)c(CS(=O)(=O)CC(=O)NCCCOC(C)C)c1 | -4.92% |
| Cc1ccc(CS(=O)(=O)CC(=O)NCCCOC(C)C)cc1 | -10.8% |
| CC(C)OCCCNC(=O)CS(=O)(=O)Cc1ccc(Cl)cc1 | 13% |

| Structure (SMILES) | cytotoxicity at 70.5 h |
| --- | --- |
| CC(Cn1cccn1)NC(=O)Nc1ccccn1 (centres undefined) | -8.38% |
| CC(NC(=O)NCc1ccoc1)c1ccc2c(c1)CC(=O)N2 (centres undefined) | -4.73% |
| O=C(CS(=O)(=O)Cc1ccccc1)NC1CCCCNC1=O (centres undefined) | 12.6% |
| Cc1csc(CNC(=O)NC(C)c2ccc3c(c2)CCC(=O)N3)n1 (centres undefined) | -5.74% |
| COc1ccccc1CC(=O)NS(=O)(=O)c1ccc(NC(C)=O)cc1 | -6.22% |
| COC(=O)C(NC(=O)CC(C)C)c1cc(F)ccc1F (centres undefined) | -1.44% |
| c1coc(-c2nnc(CN3CCCC3Cn3cncn3)o2)c1 (centres undefined) | -1.88% |
| COc1ccc(-c2nnc(CN3CCCC3Cn3cncn3)o2)cc1 (centres undefined) | 15.3% |
| CCCC(=O)NC(C(=O)OC)c1cc(F)ccc1F (centres undefined) | -3.96% |
| CNc1cc2c(nn1)CCN(C(=O)c1cccc3c1OCCO3)C2 | -0.154% |
| c1cnnc(NCC2CN(CC3CCOCC3)CCO2)c1 (centres undefined) | -5.6% |
| O=C(CN1CCOC(CNc2cccnn2)C1)N1CCCCC1 (centres undefined) | -6.36% |
| OC1(CN2CCOC(CNc3cccnn3)C2)CCCCC1 (centres undefined) | 0.208% |
| O=C(c1cccn1Cc1cccs1)N1CCC(C(=O)N2CCCC2)CC1 | -5.45% |
| NC(=O)CC1CCN(C(=O)c2cccn2Cc2cccs2)CC1 | 3.87% |
| O=C(c1cccn1Cc1cccs1)N1CCSCC1 | 25% |
| Cn1c(CN2CCOC(CNc3cccnn3)C2)nnc1C1CC1 (centres undefined) | -2.31% |
| COc1ccccc1CC(=O)NS(=O)(=O)c1ccc(C#N)cc1 | 4.13% |
| COc1ccc(Cl)cc1CC(=O)NS(=O)(=O)c1ccc(C(N)=O)cc1 | -3.68% |
| CCN(CC)S(=O)(=O)c1cccc(C(=O)N(C)Cc2ccsc2)c1 | 14.5% |
| CCOCC(=O)N1CSCC1C(=O)N(C)Cc1ccco1 (centres undefined) | 15.7% |
| CN(Cc1cnn(C)c1)C(=O)CN1CCCC(Cn2cncn2)C1 (centres undefined) | 48% |
| CCc1nc2n(n1)CC(NCc1cc(OC)c3c(c1)OCCO3)CC2 (centres undefined) | -5.82% |

| Structure (SMILES) | cytotoxicity at 70.5 h |
| --- | --- |
| Cc1cccc(C(=O)N2CCCCC2c2nc(C)cs2)n1 (centres undefined) | -12.3% |
| CC(=O)N1CCCN(C(=O)c2cnn(C(C)(C)C)c2C)CC1 | -10.1% |
| CN(Cc1ccsc1)C(=O)c1cccc(S(=O)(=O)NCC2CCCO2)c1 (centres undefined) | 15.1% |
| CN(Cc1ccsc1)C(=O)c1ccc(S(=O)(=O)NC(C)(C)C)cc1 | -7.83% |
| CCc1c(C(=O)N2CCNC(=O)C2)cnn1C(C)(C)C | -6.91% |
| Cc1nnc(NC(=O)NCc2ccc(OC(C)C)nc2)s1 | 20.6% |
| Cc1nnc(NC(=O)NCc2ccoc2)s1 | -2.74% |
| OCCN1CCN(Cc2coc(-c3cccc(Cl)c3)n2)CC1 | 24.5% |
| CCOCCCn1c(NC(=O)c2cc(C)on2)nc2ccccc21 | 9.94% |
| Cn1cnnc1C1CCCN(C(=O)NCCCn2cccn2)C1 (centres undefined) | -2.61% |
| CCc1nnc2n1CCN(CCC(=O)Nc1sccc1C#N)C2 | -3.22% |
| CC(C)c1nnc2n1CCN(CCC(=O)Nc1sccc1C#N)C2 | -1.15% |
| OCCN1CCN(Cc2coc(-c3ccccc3)n2)CC1 | -4.94% |
| CN(Cc1ccco1)C(=O)CN1CCOC(Cn2cncn2)C1 (centres undefined) | -3.13% |
| Cc1cnc(C(=O)N2CCCCC2c2nc(C)cs2)cn1 (centres undefined) | -0.288% |
| Cc1csc(CNC(=O)N2CCCC(c3nncn3C)C2)n1 (centres undefined) | -4.57% |
| CCc1c(C(=O)N2CCN(c3cnccn3)CC2)cnn1C(C)(C)C | 20.7% |
| CC(C(=O)NCCCN1CCOCC1)n1cncn1 (centres undefined) | 6.37% |
| Cc1cnn(C2CN(CC(=O)NCCCc3ccccc3)C2)c1 | 24.2% |
| Cc1nc(CN(C)C2CCCN(Cc3noc(C4CC4)n3)C2)oc1C (centres undefined) | 14.4% |
| COc1cc(C(C)=O)ccc1OCCNCc1ccco1 | -3.22% |
| CNC(C(=O)OC)c1cc(F)ccc1F (centres undefined) | -3.37% |
